# Reference: patent US20240145091A1, “METHOD FOR MODULATING THE AMOUNT OF VIRUS, METHOD FOR TREATING OR […] […], METHOD FOR […] AMOUNT OF VIRUS, AND METHOD FOR PREDICTING THE PROGNOSIS OF VIRUS INFECTION DISEASE IN SUBJECT, AS WELL AS COMPOSITION AND SYSTEM FOR THE SAME” (National Institutes of Biomedical Innovation, Health and …, priority 2022, published 2024)
# Assays:
# SARS-CoV-2 = assay: COVID-19 model mice study: body weight and survival after D-Ala administration; format: in vivo, CAG-hACE2 mice
# Protocol: FIG. 10 is a schematic diagram of the experimental protocol using coronavirus-infected mice in Example 2. CAG-hACE2 mice susceptible to SARS-CoV-2, which were developed at the National Institute of Biomedical Innovation, Health and Nutrition, were used. 2×10^2 to 10^4 of TCID50 of SARS-CoV-2 was administered to anesthetized 8—to 12-week-old individuals for bronchial infection to create a mouse model of coronavirus infection (Non-Patent Literature 9).
# FIG. 12 is a schematic diagram of the experimental schedule of D-Ala administration to coronavirus-infected mice in Example 2. 8—to 12-week-old male and female CAG-hACE2 mice were subjected to intraperitoneal administration with a predetermined dose of D-Ala twice daily, which was stared from 2 days prior to the experiment. The mice were then infected with SARS-CoV-2 via the respiratory tract.
# [1] = system: H1N1 influenza A/Puerto Rico/8/34 (PR8 influenza virus strain); assay: Influenza model mice study: body weight and survival after D-amino acid administration; format: in vivo, C57BL6 mice
# Description: (§1) FIG. 1 is a schematic diagram showing the experimental protocol for D-AA administration (+D-AA) to IAV and Mock in Example 1. C57BL6 mice (SLC, Tokyo, Japan) raised in a specific pathogen control facility were used. In order to increase the amount of virus in the mice in a short period of time, […] water containing 50 times the TCID50 (median tissue culture infectious dose, 50% infectious dose) of H1N1 influenza A/Puerto Rico/8/34 (PR8 influenza virus strain (ATCC, Manassas, USA) was administered intranasally to anesthetized 4-week-old individuals to infect them. After infection, individuals in each group were weighed and blood samples were collected on a predetermined schedule, and plasma chiral amino acids (D-amino acids and L-amino acids) were quantitatively analyzed by 2D-HPLC.
# [2] = system: H1N1 influenza A/Puerto Rico/8/34 (PR8 influenza virus strain); assay: Viral plaque quantification assay of lung tissue in influenza model mice; format: in vivo, C57BL6 mice; conditions: FIG. 3A; day 5 after D-Ala administration; IAV+D-Ala vs IAV group, n=3 to 7
# Description: as §1
# FIG. 3A is a graph showing the results of the viral plaque quantification assay of lung tissue on day 5 after D-Ala administration in the Mock, IAV, and IAV+D-Ala groups (n=3 to 7) in Example 1.
# [3] = FIG. 8, IAV (Vehicle), IAV+D-Ser, IAV+D-Ala groups
# [4] = FIG. 9, IAV (Vehicle), IAV+D-Ser, IAV+D-Ala groups
SMILES,"survival curves, Kaplan-Meier analysis with death as the endpoint (SARS-CoV-2; FIG. 14, SCV (Vehicle) vs SCV+D-Ala)","rates of change in body weights over time (SARS-CoV-2; FIG. 17, SCV (Vehicle) vs SCV+D-Ala)","survival curves, Kaplan-Meier analysis with weight loss and death as composite endpoints (SARS-CoV-2; FIG. 18, SCV (Vehicle) vs SCV+D-Ala)","survival curves by blood D-Ala level, Kaplan-Meier analysis with death as the endpoint (SARS-CoV-2; FIG. 19, SCV+D-Ala group split into high (>4.72 μM) and low (<4.72 μM) BD-Ala)","rates of change in body weight ([1]; FIG. 2, IAV+D-Ala vs IAV group, n=3-10, *P<0.05)","survival curves, Kaplan-Meier analysis with death as the endpoint ([1]; FIG. 4, Mock, Mock+D-Ala, IAV, IAV+D-Ala groups, n=3-10)","survival curves, Kaplan-Meier analysis with death as the endpoint [1, 3]","rates of change in body weight [1, 4]","amount of virus, viral plaque quantification assay of lung tissue [2]"
"C[C@@H](N)C(=O)O [D-Ala, D-alanine]",suppressed the mortality,smaller rate of decrease in body weights,suppressed the weight loss and the mortality,better prognosis,rates of weight loss were suppressed,suppressed the mortality rate,suppressed the mortality,rates of weight loss were suppressed,increase in the amount of virus in the IAV+D-Ala group was suppressed
"N[C@H](CO)C(=O)O [D-Ser, D-serine]",,,,,,,suppressed the mortality,rates of weight loss were suppressed,
